# Assay results as given in paper PMC9694197, “Undescribed Metabolites from an Actinobacteria Acrocarpospora punica and Their Anti-Inflammatory Activity” (Molecules, 2022).
# Entries after “also recorded” stand apart in the source; their conditions may differ. Where two headings read alike, the source gives them in different places.
# Columns and labels:
# Format in all cases: cell-based, mouse
# [1] = test system: iNOS gene (mRNA expression); assay: RT-PCR of iNOS mRNA expression after LPS treatment
# Protocol: (§1) The six isolates, in sufficient amounts, were evaluated by examining their inhibitory effects on LPS-induced inducible nitric oxide synthase (iNOS)-dependent NO production in the murine macrophage cell line RAW 264.7 (Table 5). […] (e) Compounds 3 and 6 belong to liner azaphilone skeleton and naphthenic derivatives, respectively; compound 3 has better anti-inflammatory activity than 6. […] (g) The cytotoxic effects were measured using an MTT assay.
# The ImProm-II Reverse Transcription System (Promega) was used to take 1 μg of the extracted total RNA, to which was added 1 μL of Oligo(dT)15 Primer, and other supplements with DEPS water. At this time, the total volume was 5 μL. The reaction was immediately placed on ice for at least 5 min, and then 5 × buffer 4 μL, MgCl2 (25 mM) 1.2 μL, dNTP Mix (10 mM) 1 μL, RNasin Ribonuclease Inhibitor 0.5 μL, ImProm-II reverse transcriptase 1 μL and DEPC H2O 6.8 μL was added; the cDNA product was obtained after the reactions of 25 °C, 5 min; 42 °C, 1 h; and 70 °C, 15 min. At the same time, a negative control group was made without reverse transcriptase to confirm whether there was DNA contamination. The obtained cDNA product was then amplified by a PCR reaction to amplify the predicted fragment.
# Using the ABI PRISM 7700 Sequence Detection System, the cDNA product was assayed for iNOS, TNF-α, IL-6 and β-actin (internal standard) in a total reaction volume of 20 μL, including 2 × IQ2 SYBR Green Fast qPCR Master Mix (2X) 10 μL, 10 μM of 5′ and 3′ primers 1 μL each. The cDNA template 1 μL reaction conditions were 95 °C, 2 min, 1 cycle; 95 °C, 5 s; and 60 °C, 30 s, 40 cycles. The primers of the PCR reaction were: sense strand iNOS, 5′-GGAGTGACGGCAAACATGACT-3′; anti-sense strand iNOS, 5′-TCGATGCACAACTGGGTGAAC-3′; sense strand IL-6, 5′-CAGAGTCCTTCAGAGAGATACAG-3′; anti-sense strand IL-6, 5′-GATGAATTGGATGGTCTTGGTCC-3′; sense strand TNF-α, 5′-CAGACCCTCACACTCAGATC-3′; anti-sense strand TNF-α, 5′-CTTTGAGATCCATGCCGTTG-3′; sense strand β-actin, 5′-GGCTGTATTCCCCTCCATCG-3′; and anti-sense strand β-actin, 5′-CCAGTTGGTAACAATGCCATGT-3′.
# [2] = Cell viability, MTT assay; conditions: mouse, RAW 264.7 macrophage cells; RAW 264.7, MTT assay
# Protocol: as §1
# (§2) Mouse macrophage cell line (RAW 264.7) was obtained from the Bioresource Collection and Research Center (BCRC 60001) and cultured at 37 °C in Dulbecco’s Modified Eagle’s Medium (DMEM) supplemented with 10% fetal bovine serum (Gibco), 4.5 g/L glucose, 4 mM glutamine, penicillin (100 units/mL), and streptomycin (100 μg/mL) in a humidified atmosphere in a 5% CO2 incubator. The cells were treated with 10, 25, 50 μM natural products in the presence of 1 μg/mL LPS (lipopolysaccharide, Sigma-Aldrich) for 20 h. The concentration of NO in culture supernatants was determined as nitrite, a major stable product of NO, by a Griess reagent assay, and the cell viabilities were determined using the MTT assay as described previously.
# [3] = test system: RAW 264.7 cells; assay: Cell viability, MTT assay; conditions: RAW 264.7, MTT assay, with 1 μg/mL LPS, 20 h; mean ± S.E.M.
# Protocol: as §1, §2
# [4] = test system: LPS-induced NO production in RAW 264.7 murine macrophages; assay: LPS-induced iNOS-dependent NO production (nitrite, Griess reagent assay); conditions: for NO inhibitory activity compared to quercetin: ratio to the positive control quercetin, RAW 264.7, LPS; for IC50: read-out: IC50, NO generation; for NO inhibitory activity (in words): RAW 264.7, LPS-stimulated
# Protocol: as §1, §2
# [5] = RAW 264.7 murine macrophages, 1 μg/mL LPS, 20 h, mean ± S.E.M. of three independent experiments
# [6] = Mus musculus, RAW264.7, 20 h, RAW 264.7 murine macrophages, 1 μg/mL LPS, 20 h, mean ± S.E.M. of three independent experiments
Structure (SMILES),Effect on LPS-increased iNOS mRNA expression [1],viability at 20 h [2] [%],Cell Viability (% Control) [3] [% Control],NO inhibitory activity compared to quercetin [4],"IC50 ([4]; RAW 264.7 murine macrophages, 1 μg/mL LPS, 20 h, mean ± S.E.M. of three independent experiments, listed as 2) [µM]","IC50 [4, 5] [µM]","IC50 ([4]; RAW 264.7 murine macrophages, 1 μg/mL LPS, 20 h, mean ± S.E.M. of three independent experiments, listed as 3) [µM]","IC50 [4, 6] [µM]",NO inhibitory activity (in words) [4],"IC50 ([4]; Mus musculus, RAW264.7, 20 h) [µM]"
"CC=CC1=CC2=CC3=C(C(=O)CCCCC)C(=O)OC3(C)C(=O)C2=CN1CC (centres unmarked) [Acrocarpunicain A (1), acrocarpunicain A]",inhibited this increase in a concentration-dependent manner; also recorded: significantly inhibited,> 90,100 ± 15.5,about 4 fold,,,,,,
"CC=CC1=CC2=CC3=C(C(=O)CCCCCCC)C(=O)OC3(C)C(=O)C2=CN1CC (centres unmarked) [Acrocarpunicain B (2), acrocarpunicain B]",inhibited this increase in a concentration-dependent manner; also recorded: significantly inhibited,> 90,95.5 ± 4.2,~3 fold,≤ 27.2,10.1 ± 0.47,,,,
"C/C=C/c1cc2cc3c(c(=O)c-2co1)C(=O)OC3C (centres unmarked) [Acrocarpunicain C (3), (E)-1-methyl-7-(prop-1-en-1-yl)-3H-furo [3,4-g]isochromene-3,4(1H)-dione]",inhibited this increase in a concentration-dependent manner; also recorded: significantly inhibited,> 90,92.7 ± 4.1,~7 fold,,5.15 ± 0.18,≤ 27.2,,,
"CC=CC1=C(C)C(=O)C2(C)OC(=O)C(C(=O)CCCCC)C2C1 (centres unmarked) [Acrocarpunicain D (4), acrocarpunicain D]",,,62.2 ± 3.2,,,,,41.7 ± 3.02,weak NO inhibitory activity,
"CCC(CCC(C)C1CCC2C3CC=C4CC(OC(=O)C=Cc5cc(O)c(OC)c(O)c5)CCC4(C)C3CCC12C)C(C)C (stereo not drawn) [Acrocarpunicain E (5), β-sitosteryl trans-3-hydroxyisoferulate]",,,,,,,,,no NO inhibitory activity,67.4 ± 4.09
"COc1cc2ccc3c(c2cc1C(C)C)CCCC3(C)C [Acrocarpunicain F (6), 6-isopropyl-7-methoxy-1,1-dimethyl-1,2,3,4-tetrahydrophenanthrene]",inhibited this increase in a concentration-dependent manner; also recorded: significantly inhibited,> 90,91.3 ± 7.1,~1.2 fold,,27.2 ± 1.87,,≤ 27.2,,
"O=c1c(O)c(-c2ccc(O)c(O)c2)oc2cc(O)cc(O)c12 [Quercetin, reference compound]",,,95.9 ± 1.3,,,,,36 ± 2.34,,
